Results from ChEMBL document CHEMBL5634077, “Recent advances in 1,2,3- and 1,2,4-triazole hybrids as antimicrobials and their SAR: A critical review” (2023).
Values after ≈ are worked out from the molar mass of the structure shown.

Tests used:
Format in all cases: functional
Proteus mirabilis = test: Antibacterial activity against Proteus mirabilis NCIM 2241 assessed as reduction in bacterial growth incubated for 18 to 24 hrs by broth microdilution method; details: time 18-24 hrs
Bacillus subtilis [1] = test: Antibacterial activity against Bacillus subtilis NCIM 2063 assessed as reduction in bacterial growth incubated for 18 to 24 hrs by broth microdilution method; details: time 18-24 hrs
Bacillus cereus [2] = test: Antibacterial activity against Bacillus cereus NCIM 2156 assessed as reduction in bacterial growth incubated for 18 to 24 hrs by broth microdilution method; details: time 18-24 hrs
Staphylococcus aureus [3] = test: Antibacterial activity against Staphylococcus aureus NCIM 2079 assessed as reduction in bacterial growth incubated for 18 to 24 hrs by broth microdilution method; details: time 18-24 hrs
Proteus vulgaris [4] = test: Antibacterial activity against Proteus vulgaris NCIM 2027 assessed as reduction in bacterial growth incubated for 18 to 24 hrs by broth microdilution method; details: time 18-24 hrs
Escherichia coli [5] = test: Antibacterial activity against Escherichia coli NCIM 2065 assessed as reduction in bacterial growth incubated for 18 to 24 hrs by broth microdilution method; details: time 18-24 hrs
Pseudomonas aeruginosa [6] = test: Antibacterial activity against Pseudomonas aeruginosa NCIM 2036 assessed as reduction in bacterial growth incubated for 18 to 24 hrs by broth microdilution method; details: time 18-24 hrs
Staphylococcus aureus [7] = test: Antibacterial activity against Staphylococcus aureus assessed as reduction in bacterial growth by broth microdilution method
Escherichia coli [8] = test: Antibacterial activity against Escherichia coli assessed as reduction in bacterial growth by broth microdilution method
Bacillus subtilis [9] = test: Antibacterial activity against Bacillus subtilis NCIM-2063 by CLSI based microdilution assay
Escherichia coli [10] = test: Antibacterial activity against Escherichia coli NCIM-2065 by CLSI based microdilution assay
Staphylococcus aureus [11] = test: Antibacterial activity against Staphylococcus aureus NCIM-2079 by CLSI based microdilution assay
Proteus vulgaris [12] = test: Antibacterial activity against Proteus vulgaris NCIM-2027 by CLSI based microdilution assay
Bacillus cereus [13] = test: Antibacterial activity against Bacillus cereus NCIM-2156 by CLSI based microdilution assay
[14] = tested on: Staphylococcus epidermidis; test: Antibacterial activity against Methicillin-sensitive Staphylococcus epidermidis assessed as bacterial growth inhibition
Enterococcus faecium = test: Antibacterial activity against Enterococcus faecium ATCC 700221
Staphylococcus aureus [15] = test: Antibacterial activity against methicillin-sensitive Staphylococcus aureus assessed as reduction in microbial growth incubated for 18 to 24 hrs by serial dilution method; details: time 18-24 hrs
Staphylococcus aureus [16] = test: Antibacterial activity against methicillin-resistant Staphylococcus aureus assessed as reduction in microbial growth incubated for 18 to 24 hrs by serial dilution method; details: time 18-24 hrs
Staphylococcus aureus [17] = test: Antibacterial activity against Staphylococcus aureus assessed as reduction in microbial growth incubated for 18 to 24 hrs by serial dilution method; details: time 18-24 hrs
[18] = tested on: Staphylococcus epidermidis; test: Antibacterial activity against Methicillin-resistant Staphylococcus epidermidis assessed as bacterial growth inhibition
Enterococcus faecalis = test: Antibacterial activity against Enterococcus faecalis assessed as bacterial growth inhibition
Staphylococcus aureus [19] = test: Antibacterial activity against Staphylococcus aureus ATCC 6538P
Escherichia coli [20] = test: Antibacterial activity against Escherichia coli ATCC 8739
Pseudomonas aeruginosa [21] = test: Antibacterial activity against Pseudomonas aeruginosa ATCC 9027
Candida albicans [22] = test: Antifungal activity against Candida albicans IFRC 194 assessed as reduction in fungal growth by CLSI based micro-dilution asssay
Candida tropicalis = test: Antifungal activity against Candida tropicalis IFRC 1057 assessed as reduction in fungal growth by CLSI based micro-dilution asssay
Nakaseomyces glabratus [23] = test: Antifungal activity against Candida glabrata assessed as reduction in fungal growth by CLSI based micro-dilution asssay
Candida parapsilosis = test: Antifungal activity against Candida parapsilosis IFRC 1269 assessed as reduction in fungal growth by CLSI based micro-dilution asssay; details: Lodderomyces parapsilosis
Pichia kudriavzevii = test: Antifungal activity against Candida krusei IFRC 1012 assessed as reduction in fungal growth by CLSI based micro-dilution asssay
Proteus vulgaris [24] = test: Antibacterial activity against Proteus vulgaris assessed as reduction in bacterial growth
Micrococcus luteus = test: Antibacterial activity against Micrococcus luteus assessed as reduction in microbial growth
Bacillus subtilis [25] = test: Antibacterial activity against Bacillus subtilis assessed as reduction in bacterial growth
Aspergillus niger [26] = test: Antifungal activity against Aspergillus niger assessed as fungal growth inhibition
Candida albicans [27] = test: Antifungal activity against Candida albicans assessed as fungal growth inhibition
Aspergillus fumigatus [28] = test: […] activity against Aspergillus fumigatus NCIM 2081 assessed as reduction in […] by micro-broth dilution method
Candida albicans [29] = test: Antifungal activity against Candida albicans MTCC 227 assessed as inhibition of fungal growth
Staphylococcus aureus [30] = test: Antibacterial activity against Staphylococcus aureus MTCC 3160 assessed as reduction in bacterial growth
Nakaseomyces glabratus [31] = test: Antifungal activity against Candida glabrata 537 assessed as reduction in fungal growth incubated for 72 hrs by NCCLS based assay
Aspergillus fumigatus [32] = test: Antifungal activity against Aspergillus fumigatus 7544 assessed as reduction in fungal growth incubated for 5 to 7 days by NCCLS based assay; details: time 5-7 day
Cryptococcus neoformans [33] = test: Antifungal activity against Cryptococcus neoformans assessed as fungal growth inhibition by CLSI based method
Candida albicans [34] = test: Antifungal activity against Candida albicans NCIM 2087 assessed as fungal growth inhibition
Candida albicans [35] = test: Antifungal activity against Candida albicans Y0109 assessed as reduction in fungal growth incubated for 24 hrs by NCCLS based assay
Aspergillus niger [36] = test: […] activity against Aspergillus niger NCIM 2191 assessed as reduction in […] by micro-broth dilution method
Nannizzia gypsea = test: Antifungal activity against Microsporum gypseum assessed as reduction in fungal growth incubated for 5 to 7 days by NCCLS based assay; details: time 5-7 day
Candida albicans [37] = test: Antifungal activity against Candida albicans assessed as fungal growth inhibition by CLSI based method
Candida albicans [38] = test: Antifungal activity against Candida albicans SC5314 assessed as reduction in fungal growth incubated for 24 hrs by NCCLS based assay
Cryptococcus neoformans [39] = test: Antifungal activity against Cryptococcus neoformans 32609 assessed as reduction in fungal growth incubated for 72 hrs by NCCLS based assay
Trichophyton rubrum = test: Antifungal activity against Trichophyton rubrum assessed as reduction in fungal growth incubated for 5 to 7 days by NCCLS based assay; details: time 5-7 day

Nn1c(NCCCNc2ccnc3cc(Cl)ccc23)nn(CN2CCNCC2)c1=S
MIC (Proteus mirabilis): 12.5 µg/mL (≈ 27.9 µM) | MIC (Bacillus subtilis [1]): 12.5 µg/mL (≈ 27.9 µM) | MIC (Bacillus cereus [2]): 3.12 µg/mL (≈ 6.98 µM) | MIC (Staphylococcus aureus [3]): 3.12 µg/mL (≈ 6.98 µM) | MIC (Proteus vulgaris [4]): 12.5 µg/mL (≈ 27.9 µM) | MIC (Escherichia coli [5]): 6.25 µg/mL (≈ 14 µM) | MIC (Pseudomonas aeruginosa [6]): 25 µg/mL (≈ 55.8 µM)

CC(C)Cc1ccc(C(C)C(=O)NC(Cc2cn(Cc3cn(CC(=O)Nc4ccccc4Cl)nn3)c3ccccc23)C(=O)NC(Cc2ccccc2)C(N)=O)cc1 (stereo unspecified)
MIC (Staphylococcus aureus [7]): 25 µg/mL (≈ 31.8 µM)

CC(C)Cc1ccc(C(C)C(=O)NC(Cc2cn(Cc3cn(CC(=O)Nc4ccccc4[N+](=O)[O-])nn3)c3ccccc23)C(=O)NC(Cc2ccccc2)C(N)=O)cc1 (stereo unspecified)
MIC (Escherichia coli [8]): 25 µg/mL (≈ 31.3 µM)

O=C(CNN1C(=O)CSC1c1ccc(-c2ccc(F)cc2)cc1)NN1C(c2ccncc2)=NNC1S (stereo unspecified)
MIC (Bacillus subtilis [9]): 3.12 µg/mL (≈ 5.97 µM) | MIC (Escherichia coli [10]): 3.12 µg/mL (≈ 5.97 µM) | MIC (Staphylococcus aureus [11]): 3.12 µg/mL (≈ 5.97 µM) | MIC (Proteus vulgaris [12]): 3.12 µg/mL (≈ 5.97 µM) | MIC (Bacillus cereus [13]): 3.12 µg/mL (≈ 5.97 µM)

CN[C@H](CC(C)C)C(=O)N[C@H]1C(=O)N[C@@H](CC(N)=O)C(=O)N[C@H]2C(=O)N[C@H]3C(=O)N[C@H](C(=O)N[C@H](C(=O)O)c4cc(O)cc(O)c4-c4cc3ccc4O)[C@H](O)c3ccc(c(Cl)c3)Oc3cc2cc(c3O[C@@H]2O[C@H](CO)[C@@H](O)[C@H](O)[C@H]2O[C@H]2C[C@](C)(N)[C@H](O)[C@H](C)O2)Oc2ccc(cc2Cl)[C@H]1O [VANCOMYCIN]
MIC [14]: 0.5 µg/mL (≈ 0.345 µM) | MIC (Enterococcus faecium): > 88.3 µM | MIC (Staphylococcus aureus [15]): 0.25 µg/mL | MIC (Staphylococcus aureus [16]): 0.25 µg/mL | MIC (Staphylococcus aureus [17]): 0.25 µg/mL | MIC [18]: 0.5 µg/mL (≈ 0.345 µM) | MIC (Enterococcus faecalis): 0.5 µg/mL (≈ 0.345 µM)

CC(=O)NCn1nc(NCCCNc2ccnc3cc(Cl)ccc23)n(N)c1=S
MIC (Proteus mirabilis): 12.5 µg/mL (≈ 29.7 µM) | MIC (Bacillus subtilis [1]): 12.5 µg/mL (≈ 29.7 µM) | MIC (Bacillus cereus [2]): 6.25 µg/mL (≈ 14.8 µM) | MIC (Staphylococcus aureus [3]): 6.25 µg/mL (≈ 14.8 µM) | MIC (Proteus vulgaris [4]): 12.5 µg/mL (≈ 29.7 µM) | MIC (Escherichia coli [5]): 12.5 µg/mL (≈ 29.7 µM) | MIC (Pseudomonas aeruginosa [6]): 25 µg/mL (≈ 59.4 µM)

CCn1cc(C(=O)O)c(=O)c2cc(F)c(N3CCN(Cn4nc(-c5ccncc5)n(-c5ccc(OC)cc5)c4=S)CC3)cc21
MIC (Staphylococcus aureus [19]): 0.125 µg/mL (≈ 0.203 µM) | MIC (Escherichia coli [20]): 0.125 µg/mL (≈ 0.203 µM) | MIC (Pseudomonas aeruginosa [21]): 0.125 µg/mL (≈ 0.203 µM)

OC(CSC(=S)N1CCN(Cc2ccc(Cl)cc2)CC1)(Cn1cncn1)c1ccc(F)cc1F (stereo unspecified)
MIC (Candida albicans [22]): 0.063 µg/mL (≈ 0.12 µM) | MIC (Candida tropicalis): 0.063 µg/mL (≈ 0.12 µM) | MIC (Nakaseomyces glabratus [23]): 0.063 µg/mL (≈ 0.12 µM) | MIC (Candida parapsilosis): 0.063 µg/mL (≈ 0.12 µM) | MIC (Pichia kudriavzevii): 0.063 µg/mL (≈ 0.12 µM)

COc1ccc(-c2cc(-c3nnn(-c4ccccc4)c3C)no2)cc1
MIC (Proteus vulgaris [24]): 1.56 µg/mL (≈ 4.69 µM) | MIC (Micrococcus luteus): 1.56 µg/mL | MIC (Bacillus subtilis [25]): 1.56 µg/mL (≈ 4.69 µM)

Cc1ccc(NC(=O)Cn2cc(COc3ccc(C(=O)/C=C/c4ccc([N+](=O)[O-])cc4)cc3)nn2)cc1
MIC (Aspergillus niger [26]): 125 µM | MIC (Candida albicans [27]): 125 µM (≈ 62.2 µg/mL)

OC(Cn1cncn1)(Cn1cncn1)c1ccc(F)cc1F [FLUCONAZOLE]
MIC (Candida albicans [22]): 0.5 µg/mL (≈ 1.63 µM) | MIC (Aspergillus fumigatus [28]): 16 µg/mL (≈ 52.2 µM) | MIC (Candida albicans [29]): 40 µM (≈ 12.3 µg/mL) | MIC (Aspergillus niger [26]): 20.4 µg/mL | MIC (Staphylococcus aureus [30]): 40 µM (≈ 12.3 µg/mL) | MIC80 (Nakaseomyces glabratus [31]): 2 µg/mL (≈ 6.53 µM) | MIC80 (Aspergillus fumigatus [32]): > 64 µg/mL | MIC (Cryptococcus neoformans [33]): 4 µg/mL (≈ 13.1 µM) | MIC (Candida albicans [34]): 1 µg/mL (≈ 3.27 µM) | MIC (Candida tropicalis): 0.5 µg/mL (≈ 1.63 µM) | MIC (Nakaseomyces glabratus [23]): 0.5 µg/mL (≈ 1.63 µM) | MIC80 (Candida albicans [35]): 0.25 µg/mL (≈ 0.816 µM) | MIC (Aspergillus niger [36]): 4 µg/mL (≈ 13.1 µM) | MIC (Candida parapsilosis): 0.5 µg/mL (≈ 1.63 µM) | MIC80 (Nannizzia gypsea): 32 µg/mL (≈ 104 µM) | MIC (Candida albicans [37]): 4 µg/mL (≈ 13.1 µM) | MIC (Pichia kudriavzevii): 0.5 µg/mL (≈ 1.63 µM) | MIC80 (Candida albicans [38]): 0.5 µg/mL (≈ 1.63 µM) | MIC80 (Cryptococcus neoformans [39]): 1 µg/mL (≈ 3.27 µM) | MIC80 (Trichophyton rubrum): 8 µg/mL (≈ 26.1 µM)
